Results as given in patent US6859735B1, “Computer systems for identifying pathways of drug action” (priority 1998, dated 2005).

Key:
[1] = test system: pathway originating at calcineurin; assay: Genome-wide correlation of FK506 expression responses against combined Cyc A and methotrexate pathway responses (scaling parameter); assay type: cell-based, Saccharomyces cerevisiae; conditions: location of the correlation peak versus scaling parameter applied to FK506 data
Experimental: The gene expression measurements illustrated in FIGS. 8A-C were made as detailed below. To generate the cyclosporin dose response curves, an overnight starter culture of S.cerevisiae strain R563 (Genotype: Mat a ura3-52 lys2-801 ade2-101 trpl-Δ63 his3-Δ200 leu2-Δ1 his3::HIS3) was diluted into 200 ml of YAPD plus 10 mM CaCl2 medium (see, e.g., Ausubel et al., eds., 1996, Current Protocols in Molecular Biology, John Wiley & Sons, Inc., especially ch. 13) to an OD600 of 0.1 and grown at 30° C. with 300 rpm shaking. After a 30 min, cyclosporin A dissolved in ethanol was added to cultures at final concentrations of 60, 30, 15, 6 and 3 μg/ml. Control cultures were treated with the same volume of just ethanol. Growth was monitored by OD600 and cells were harvested at OD600=1.4+/−0.1 by centrifugation for 2 min at ambient temperature in a Sorvall RC5C+centrifuge in a SLA-1500 rotor. […]
In all cases, polyA^+ RNA was isolated by oligo-dT cellulose chromatography using two selections by standard protocols (see, e.g., Sambrook et al. 1989, Molecular Cloning A Laboratory Manual, Cold Spring Harbor Laboratory Press). […] Extent of hybridization was determined by scanning with a prototype multi-frame CCD camera slides produced by Applied Precision, Inc. Images were processed by informatics and imported into the Inpharma database and analyzed using the MatLab data analysis package. […]

wild type yeast cells = conditions: at 10 micrograms/ml doxycycline, Gari et al. 1997; cited from earlier work
yeast gene YOL031C = assay: Transcript array gene expression response to graded methotrexate exposure, Hill function fit; assay type: cell-based, Saccharomyces cerevisiae
Description: In model fitting, the drug and pathway responses are interpolated by approximating each by a single parameterized function. An exemplary model-fitting function appropriate for approximating transcriptional state data is the Hill function, which has adjustable parameters a, u0, and n. [formula]
The adjustable parameters are selected independently for each cellular constituent of the drug response and for each cellular constituent of the pathway response. Preferably, the adjustable parameters are selected so that for each cellular constituent of each pathway response the sum of the squares of the distances of H(pi,l) from Ri,k(pi,l) is minimized, and so that for each cellular constituent of the drug response the sum of the squares of the distances of H(tl) from Dk(tl) is minimized. This preferable parameter adjustment method is known in the art as a least squares fit of H( ) to Ri,k( ) or to Dk( ). Other possible model functions are based on polynomial fitting, for example by various known classes of polynomials.
Model fitting with a Hill function is illustrated with respect to FIGS. 3 and 4. As discussed, FIG. 3 illustrates an example of a pathway perturbed by methotrexate and identified by measurement. This figure illustrates the mRNA expression levels of 30 genes of the yeast S. cerevisiae that, of the approximately 6000 genes in the genome of this yeast, had the largest expression changes in response to six different exposure levels of methotrexate. FIG. 4 illustrates a fit of the pathway response of one of these gene expression levels by a Hill function. […]
In all cases, polyA^+ RNA was isolated by oligo-dT cellulose chromatography using two selections by standard protocols (see, e.g., Sambrook et al. 1989, Molecular Cloning A Laboratory Manual, Cold Spring Harbor Laboratory Press). […] Extent of hybridization was determined by scanning with a prototype multi-frame CCD camera slides produced by Applied Precision, Inc. Images were processed by informatics and imported into the Inpharma database and analyzed using the MatLab data analysis package.

yeast = assay: Growth of yeast under methotrexate exposure; assay type: cell-based, Saccharomyces cerevisiae; conditions: 100 μm methotrexate titration
Experimental: To generate methotrexate dose response curves, an overnight starter culture of S.cerevisiae strain BY4741 (Genotype: Mat a his3Δ0 leu2D0 ura3Δ0 met15Δ0) was diluted into 200 ml of SC medium (see, e.g., Ausubel et al, ch. 13) to an OD600 of 0.1 and grown at 30° C. with 300 rpm shaking. After 30 min, methotrexate dissolved in water was added to cultures at final concentrations of 200, 100, 50, 25, 6.2, and 3.1 μM. Control cultures were treated with the same volume of water. The rest of the procedure was as above.

With `C=CC[C@@H]1/C=C(\C)C[C@H](C)C[C@H](OC)[C@H]2O[C@@](O)(C(=O)C(=O)N3CCCC[C@H]3C(=O)O[C@H](/C(C)=C/[C@@H]3CC[C@@H](O)[C@H](OC)C3)[C@H](C)[C@@H](O)CC1=O)[C@H](C)C[C@@H]2OC` [FK506] the “approximate relative potency of FK506 and Cyc A” value [1] was “approximately 63”.
In the case of `C[C@H]1c2cccc(O)c2C(=O)C2=C(O)[C@]3(O)C(=O)C(C(N)=O)=C(O)[C@@H](N(C)C)[C@@H]3[C@@H](O)[C@@H]21` [doxycycline], the “effect on the growth rate” value (wild type yeast cells) is given as “no significant effect”.
In the case of `CN(Cc1cnc2nc(N)nc(N)c2n1)c1ccc(C(=O)N[C@@H](CCC(=O)O)C(=O)O)cc1` [methotrexate], the “Hill function parameter a” value (yeast gene YOL031C; least squares fit of YOL031C expression response (log expression ratio amplitude)) is reported as −0.61, the “Hill function parameter n” value (yeast gene YOL031C; least squares fit of YOL031C expression response to six methotrexate exposure levels) is reported as 2 and the “Hill function parameter log10(u0)” value (yeast gene YOL031C; least squares fit of YOL031C expression response, methotrexate exposure levels 3-200 μm) is reported as 1.26. The growth defect (yeast) was 50%.
